We go through 15 compounds from ChEMBL document CHEMBL1127229, “New non-peptide angiotensin II receptor antagonists. 1: structure - activity relationships of a series of a series of 2(1H)-pyridinones” (1994).

What all share (assay type): functional
Assay [1] deals with Rattus norvegicus. As to the kind of experiment: In vivo potency determined for AII-induced pressor response in normotensive rats, iv administration. To be noted: read-out: ID50 (the source's name).
Assay [2] has as its system Rattus norvegicus. As to the kind of experiment: Tested for lowering of Blood pressure in spontaneous hypertensive rat at a dose of 10mg/kg, po at 6 hr.
Assay [3] concerns Rattus norvegicus. As to the kind of experiment: In vivo potency determined for AII-induced pressor response in normotensive rats, iv. To be noted: read-out: ID50 (the source's name).

The structures appear in SMILES notation.

For `CCCc1cccc(=O)n1Cc1ccc(-c2ccccc2-c2nn[nH]n2)cc1`, the ED50 in assay [1] came to 1.1 mg/kg.

Take `CCCCc1cc(O)cc(=O)n1Cc1ccc(-c2ccccc2-c2nn[nH]n2)cc1`: the BP decrease in assay [2] is recorded as 36%. Moreover, the ED50 in assay [1] was determined as 0.38 mg/kg.

Turning to `CCCCc1cc(O)c([N+](=O)[O-])c(=O)n1Cc1ccc(-c2ccccc2-c2nn[nH]n2)cc1`, in assay [1], the ED50 is 0.58 mg/kg.

Regarding `CCCc1cc(SC)cc(=O)n1Cc1ccc(-c2ccccc2-c2nn[nH]n2)cc1`, the ED50 in assay [1] was 0.28 mg/kg.

Turning to `CCCc1cc(CO)cc(=O)n1Cc1ccc(-c2ccccc2-c2nn[nH]n2)cc1`, the ED50 in assay [1] is 0.3 mg/kg.

For the compound `CCCCc1nc(Cl)c(CO)n1Cc1ccc(-c2ccccc2-c2nnn[n-]2)cc1.[K+]` [LOSARTAN POTASSIUM], the ED50 in assay [1] amounted to 1.2 mg/kg.

With `CCCc1cc(N)c([N+](=O)[O-])c(=O)n1Cc1ccc(-c2ccccc2-c2nn[nH]n2)cc1`, the ED50 in assay [3] was 4.8 mg/kg.

Take `CCCc1cc(O)c(C)c(=O)n1Cc1ccc(-c2ccccc2-c2nn[nH]n2)cc1`: the ED50 in assay [1] was 0.027 mg/kg.

`CCCc1cc(C(=O)NCCN(C)C)cc(=O)n1Cc1ccc(-c2ccccc2-c2nn[nH]n2)cc1`: in assay [1], the ED50 stood at 0.18 mg/kg.

As to `CCCc1cc(O)cc(=O)n1Cc1ccc(-c2ccccc2-c2nn[nH]n2)cc1`, the ED50 in assay [1] amounted to 0.048 mg/kg.

For the compound `CCCc1cc(OC)cc(=O)n1Cc1ccc(-c2ccccc2-c2nn[nH]n2)cc1`, the ED50 in assay [1] was found to be 0.24 mg/kg.

`CCCc1cc(C(=O)O)cc(=O)n1Cc1ccc(-c2ccccc2-c2nn[nH]n2)cc1`: in assay [1], the ED50 is 0.078 mg/kg.

Take `CCCc1cc(S)cc(=O)n1Cc1ccc(-c2ccccc2-c2nn[nH]n2)cc1`: the ED50 in assay [1] turned out to be 0.017 mg/kg.

For the compound `CCCc1cc(OCc2cccnc2)cc(=O)n1Cc1ccc(-c2ccccc2-c2nn[nH]n2)cc1`, the ED50 in assay [1] turned out to be 0.72 mg/kg.

As to `CCc1cc(O)cc(=O)n1Cc1ccc(-c2ccccc2-c2nn[nH]n2)cc1`, the ED50 in assay [1] worked out at 0.084 mg/kg.
